Data reported in US20160228575A1, “NARINGENIN COMPLEXES AND METHODS OF USE THEREOF” (THE GENERAL HOSPITAL CORPORATION, priority 2008, published 2016).

Assays:
ApoB = ApoB secretion by JFH-1 infected Huh-7.5.1 cells (human ApoB ELISA); format: cell-based; conditions: 24 hours, brefeldin A 2.5 μg/ml
Procedure: (§1) HCV-infected Huh-7.5.1 cells were plated on a 6-well plate at a density of 1×10^5 cells/cm^2 and cultured overnight in standard medium. Prior to the beginning of the experiment, the cells were washed 3 times with PBS and cultured with DMEM containing 5% lipoprotein-free FBS. Oleate, Insulin, Naringenin, and Brefeldin A were added at this time as described in the text. Following 24 hours of incubation, the plate was gently agitated to release mechanically bound particles, the media was collected, filtered to remove cellular debris, and stored at −80° C. for further analysis. The attached cells were washed 3 times with PBS, harvested, pelleted and stored at −80° C. for further analysis.
Huh-7.5.1 and primary human hepatocytes secreted ApoB was detected in the media using ALerCHEK, Inc (Portland, Me.) total human ApoB ELISA kit. Media was diluted 1:10 with the specimen diluent, and the assay was carried out according to manufacturer's directions.
HCV-infected Huh-7.5.1 cells were plated T-25 tissue culture flasks at a density of 1×10^5 cells/cm^2 and cultured overnight in standard medium. Prior to silencing, the cells were washed 3 times with PBS and media was replaced with OptiMEM basal medium. SureSilencing shRNA (GFP) plasmids against human ApoB100 as well as shRNA plasmid control (500 ng/ml) were combined with lipofectamine 2000 in OptiMEM and incubated with the cells overnight. SureSilencing shRNA plasmids code for GFP which was used to sort the transfected Huh7.5.1 cells, using FACSAria (BD Biosciences) located at the Partners AIDS Research Center. Transfected cells (10% of the total population) were sorted directly into a 12-well plate and allowed to adhere overnight. Culture media was conditioned by the transfected cells for 24 hours and analyzed as described above.

[1] = tested on: HCV (JFH-1) secreted by infected Huh-7.5.1 cells; assay: HCV secretion by JFH-1 infected Huh-7.5.1 cells (HCV core antigen ELISA, HCV positive strand RNA qPCR); format: cell-based, Hepatitis C virus
Procedure: The Huh-7.5.1 human hepatoma cell line and a plasmid containing the JFH-1 genome were kindly provided by Dr. Chisari (Scripps Research Institute, CA) and Dr. Wakita (National Institute of Infectious Diseases, Tokyo) respectively. Huh-7.5.1 cells were cultured in DMEM medium supplemented with 10% FBS, 200 units/ml penicillin and […] streptomycin in a 5% CO2-humidified incubator at 37° C. In vitro transcribed genomic JFH-1 RNA was delivered to cells by liposome-mediated transfection as described by Zhong et al. (2005)(8). Infected Huh-7.5.1 cells were passaged every 3 days and used at passage <15. The presence of HCV in these cells and corresponding supernatants were determined by quantitative Polymerase Chain Reaction (qPCR) and immunofluorescence staining. Primary human hepatocytes were purchased from BD Biosciences (San Jose, Calif.) cultured on a collagen-coated 12 well plate in C+H culture media composed of DMEM supplemented with 10% heat-inactivated FBS, 200 U/mL penicillin/streptomycin, 7.5 μg/mL hydrocortisone, 20 ng/mL EGF, 14 ng/mL glucagons and 0.5 U/mL insulin. The media was supplemented with 2% DMSO for long-term culture of the primary cells.
as §1
Huh-7.5.1 secreted HCV core antigen was detected in the media using Wako Chemicals (Cambridge, Mass.) ORTHO HCV antigen ELISA kit. Media was used as is, and the assay was carried out according to manufacturer's directions.
(§2) Virus samples collected in each experiment were filtered with a 0.45 μm filter and a volume of 100 μL for each sample was heated at 95° C. for 45 min. The reverse transcription reaction step was performed on a Mastercycler epgrdientS (Eppendorf) instrument using Omniscript and Sensiscript RT Kits (Qiagen). Real time PCR was performed on a Light Cycler LC-24 (Idaho Technology), using SuperScript™ III Platinum® CellsDirect Two-Step qRT-PCR Kits (Invitrogen) for quantitative PCR. For reverse transcription step, 2 μL of sample without RNA extraction were used. For real time PCR, 1 μL of the reverse transcription reactions was used. All reactions were performed according to the manufacturer's instructions using the primers detailed in Table 1.
However, this experiment was carried out on cells continuously producing the virus. Long-term treatment could potentially have a greater effect. […] This treatment is compared to the current standard-of-care, 1000 i.u. of Interferon α (IFNα). Both treatments lowered HCV RNA to a similar level, 96±5% and 93±5% respectively.

[2] = tested on: HCV (JFH-1) infection of naïve Huh7.5.1 cells; assay: HCV infectivity of cell culture supernatant on naïve Huh7.5.1 cells; format: cell-based, Hepatitis C virus
Procedure: The infectivity of the secreted HCV particles was measured as previously described (8). Naïve Huh7.5.1 cells were grown to 80% confluence and exposed to cell culture supernatants diluted 10-fold in culture media. Following 1 hour incubation at 37° C., the media was replaced, and the cells were cultured for 3 additional days. Levels of HCV infection were determined by immunofluorescence staining for HCV core protein. The viral titer is expressed as focus forming units per milliliter of supernatant (ffu/ml).

[3] = 400 mg/day oral, hypercholesterolemic patients; cited from earlier work
[4] = tested on: HCV (JFH-1) in Huh-7.5.1 cells; assay: Intracellular HCV RNA and core protein in infected Huh-7.5.1 cells; format: cell-based, Hepatitis C virus
Procedure: as §1, §2
Huh-7.5.1 cells were washed 3 times with PBS and fixed in 4% EM-grade paraformaldehyde for 10 minutes at room temperature. Slides were then washed with PBS and incubated in 100 mmol/L glycine for 15 minutes to saturate reactive groups. Samples were permeabilized for 15 minutes with 0.1% Triton X-100, blocked for 30 minutes with 1% bovine serum albumin and 5% donkey serum at room temperature, and stained with primary antibodies overnight at 4° C. After additional washes with PBS, samples were stained with fluorescently tagged secondary antibodies for 45 minutes at room temperature.

[5] = 24 hours, brefeldin A 2.5 μg/ml

C[C@H]1CCC/C=C/[C@@H]2C[C@H](O)C[C@H]2[C@H](O)/C=C/C(=O)O1 [brefeldin A, reference compound]
ApoB secretion (in words) (ApoB): blocked
HCV core protein secretion (in words) [1, 5]: significantly inhibits
HCV positive strand RNA secretion (in words) [1, 5]: significantly inhibits
inhibition of infectivity of the cell supernatant ([2]; supernatant after 24 hours stimulation, naringenin 200 μM, brefeldin A 2.5 μg/ml): 89%±10%

C[C@@H]1O[C@@H](O[C@H]2[C@H](Oc3cc(O)c4c(c3)O[C@H](c3ccc(O)cc3)CC4=O)O[C@H](CO)[C@@H](O)[C@@H]2O)[C@H](O)[C@H](O)[C@H]1O [naringin, reference compound]
lowering of LDL levels [3]: 17%

IFNα [reference compound]
HCV replication (intracellular HCV RNA), long-term treatment ([4]; long-term treatment, naringenin 200 μM, IFNα 1000 i.u.): inhibited
inhibition of HCV (RNA) secretion, long-term treatment ([1]; long-term daily treatment of infected Huh7.5.1 cells, naringenin 200 μM, IFNα 1000 i.u.): 93±5%

insulin: insulin obtained from Eli-Lilly [reference compound]
intracellular levels of HCV (positive strand) RNA ([4]; 24 hours stimulation): remained unchanged
ApoB secretion (in words) (ApoB): downregulated
HCV core protein secretion (in words) [1, 5]: downregulated
infectivity of the cell supernatant (in words) ([2]; supernatant of stimulated infected Huh-7.5.1 cells): decreased
